# Reference: patent US5324648A, “Substituted isocoumarins as serine protease inhibitors and anti-inflammatory agents” (Georgia Tech Research Corporation, priority 1992, dated 1994)
# Read-outs that look alike come from different tables or passages of the source.
# Assays:
# mouse granzyme A = target: T1, mouse granzyme A (Mus musculus, UniProt P11032); test: Inactivation rate of mouse granzyme A; format: biochemical; conditions: Table VII; pH 7.5, 25° C; [I] 0.4 to 45 μM; read-out: kobs/[I]
# T1 construct: mouse cytotoxic lymphocyte granzyme A; endogenous in cells; host or cells: mouse cytotoxic lymphocytes
# T1 sequence (P11032 29-260): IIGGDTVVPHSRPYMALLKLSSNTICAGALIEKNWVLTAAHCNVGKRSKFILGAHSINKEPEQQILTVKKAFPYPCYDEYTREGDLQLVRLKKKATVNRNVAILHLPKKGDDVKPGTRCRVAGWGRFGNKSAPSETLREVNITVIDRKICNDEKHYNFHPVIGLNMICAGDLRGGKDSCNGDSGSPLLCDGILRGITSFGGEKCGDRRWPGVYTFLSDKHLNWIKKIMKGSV
# Method: (§1) Inactivation rates of serine proteases by substituted isocoumarins were measured by the incubation method. An aliquot of inhibitor (25 or 50 μl) in Me2 SO was added to a buffered enzyme solution (0.01-2.3 μM) to initiate the inactivation. Aliquots (50 μl) were withdrawn at various intervals and the residual enzymatic activity was measured. Me2 SO concentration in the reaction mixture was 8-12% (v/v). 0.1 Hepes, 0.01M CaCl2, pH 7.5 buffer was utilized for trypsin and coagulation enzymes. 0.1M Hepes, 0.5M NaCl, pH 7.5 was utilized for other serine proteases. The inhibitor concentrations are shown in all the tables. Peptide thioesters or peptide nitroanilides with appropriate sequence were used as substrates for various serine proteases. All peptide thioester hydrolysis rates were measured with assay mixtures containing 4,4'-dithiodipyridine (ε324 =19800M^-1 cm^-1; Grasetti & Murray, Arch. Biochem. Biophys. 119, pp 41-49 (1967)). Peptide 4-nitroanilide nitroanilide hydrolysis was measured at 410 nm (ε410 =8800M^-1 cm^-1; Erlanger et al., Arch. Biochem. Biophys. 95, pp 271-278 (1961)). First order inactivation rate constant (kobs) were obtained from plots of ln (vt /vo) vs time, and the correlation coefficients were greater than 0.98.
# ^a Inactivation rates were measured at 0.1M Hepes, 0.01M CaCl2,
# pH 7.5, 8% Me2 SO and 25° C. by incubation method. ZArg-SBzl
# (74-85 μM) was used as the substrate to monitor the residual enzymatic
# human plasma kallikrein = target: T2, human plasma kallikrein (Homo sapiens, UniProt P03952); test: Inactivation rate of human plasma kallikrein; format: biochemical; conditions: Table I, read-out: kobs/[I]
# T2 construct: human plasma kallikrein; from tissue; host or cells: human plasma (from the name)
# T2 sequence (P03952 391-638 limits assumed): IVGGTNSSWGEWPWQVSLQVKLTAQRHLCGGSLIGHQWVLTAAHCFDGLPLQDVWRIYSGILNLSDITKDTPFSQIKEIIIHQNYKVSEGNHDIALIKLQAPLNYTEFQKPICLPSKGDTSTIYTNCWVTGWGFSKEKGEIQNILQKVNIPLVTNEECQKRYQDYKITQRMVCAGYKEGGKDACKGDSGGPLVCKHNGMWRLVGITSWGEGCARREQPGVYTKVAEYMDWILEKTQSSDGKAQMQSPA
# T2 sequence (P03952 20-390 partner limits assumed): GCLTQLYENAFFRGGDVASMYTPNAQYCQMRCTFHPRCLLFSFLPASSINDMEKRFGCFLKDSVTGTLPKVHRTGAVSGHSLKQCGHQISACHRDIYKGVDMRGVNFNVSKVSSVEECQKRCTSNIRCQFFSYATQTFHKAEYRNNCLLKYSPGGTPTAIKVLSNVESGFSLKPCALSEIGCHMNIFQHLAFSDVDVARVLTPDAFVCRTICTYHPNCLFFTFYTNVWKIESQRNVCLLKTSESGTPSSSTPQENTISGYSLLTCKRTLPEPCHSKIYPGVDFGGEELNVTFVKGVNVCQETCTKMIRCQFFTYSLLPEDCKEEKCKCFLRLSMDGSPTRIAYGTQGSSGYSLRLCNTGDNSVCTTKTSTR
# Method: as §1
# (§2) ^a Conditions were as 0.1M Hepes, 0.01M CaCl2, pH 7.5 and 8-12%
# (§3) Me2 SO and 25° C. Rate constants were measured by incubation
# (§4) method unless otherwise noted. An aliquot of inhibitor was added to an
# (§5) enzyme solution and aliquots removed with time and assayed for remaining
# (§6) enzymatic activity. Firstorder rate constants, kobs were obtained
# (§7) from the plots of ln(vt /vo) versus time.
# [1] = Prothrombin time (PT), human plasma
# chymotrypsin = chymotrypsin (Bos taurus, UniProt P00766); test: Inactivation of chymotrypsin; format: biochemical, bovine; conditions: pH 7.5, 25° C, read-out: kobs/[I]
# complement protein B = complement protein B (Homo sapiens, UniProt P00751); test: Inactivation rate of complement protein B; format: biochemical; conditions: for kinact/KI: Table II, pH 7.5, 25° C, [I] 0.19 to 1.25 mM, read-out: kobs/[I]
# Chain of complement protein B (P00751 26-764): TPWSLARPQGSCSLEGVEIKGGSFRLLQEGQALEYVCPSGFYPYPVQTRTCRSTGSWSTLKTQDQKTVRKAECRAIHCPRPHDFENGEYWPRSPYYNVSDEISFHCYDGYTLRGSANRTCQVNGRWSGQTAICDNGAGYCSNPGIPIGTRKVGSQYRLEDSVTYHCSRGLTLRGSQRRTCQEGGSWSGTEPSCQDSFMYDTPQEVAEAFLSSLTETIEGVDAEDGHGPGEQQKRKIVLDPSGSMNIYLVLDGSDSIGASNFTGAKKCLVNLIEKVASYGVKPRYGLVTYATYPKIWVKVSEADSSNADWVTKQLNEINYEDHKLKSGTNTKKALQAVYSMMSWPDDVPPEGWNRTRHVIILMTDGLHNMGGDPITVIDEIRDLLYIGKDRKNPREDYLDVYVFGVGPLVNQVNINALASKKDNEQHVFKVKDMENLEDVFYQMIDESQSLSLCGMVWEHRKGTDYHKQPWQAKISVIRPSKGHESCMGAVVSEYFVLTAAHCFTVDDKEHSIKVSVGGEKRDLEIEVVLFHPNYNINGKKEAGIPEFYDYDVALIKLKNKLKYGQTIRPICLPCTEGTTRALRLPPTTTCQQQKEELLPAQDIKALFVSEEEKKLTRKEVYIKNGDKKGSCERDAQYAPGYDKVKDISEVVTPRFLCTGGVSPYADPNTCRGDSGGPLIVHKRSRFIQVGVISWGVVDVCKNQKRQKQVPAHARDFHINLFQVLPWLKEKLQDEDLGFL
# Method: as §1
# ^a Conditions were 0.1M Hepes, 0.5M NaCl, pH 7.5, 8-10% Me2 SO
# and 25° C. Inactivation rates were measured by incubation method.
# Enzyme concentrations were as follows: protein D, 1-9 μM; C2, 0.7-1
# μM; B, 1.8 μM; Bb, 0.3-0.8 μM; Cl^- s, 0.07 μM; Cl^-
# bovine thrombin = target: T3, bovine thrombin (Bos taurus, UniProt P00735); test: Inactivation rate of bovine thrombin; format: biochemical; conditions: read-out: kobs/[I]
# T3 construct: bovine thrombin
# In short: (§8)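 Incubating enzyme with inhibitor in Ca2+-containing Hepes, pH 7.5, 8-12% Me2SO, 25° C, then sampling over time, gave residual activity measured spectrophotometrically with thioester or nitroanilide substrates; kobs was taken from ln(vt/vo) plots.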
# rat skin tryptase = target: T4, rat skin tryptase (Rattus norvegicus, UniProt P27435); test: Inactivation rate of rat skin tryptase; format: biochemical; conditions: pH 7.5, 25° C, read-out: kobs/[I]
# T4 construct: from tissue; host or cells: rat skin
# T4 sequence (P27435 29-273): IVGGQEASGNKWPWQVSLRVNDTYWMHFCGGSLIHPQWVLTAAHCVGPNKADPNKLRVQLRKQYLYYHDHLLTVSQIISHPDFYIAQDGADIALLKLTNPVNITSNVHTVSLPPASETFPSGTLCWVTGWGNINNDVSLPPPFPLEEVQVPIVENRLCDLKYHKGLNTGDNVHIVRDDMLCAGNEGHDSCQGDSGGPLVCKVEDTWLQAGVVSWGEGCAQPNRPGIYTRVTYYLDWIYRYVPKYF
# In short: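 Rat skin tryptase incubated with isocoumarin inhibitor in 25 mM phosphate, 0.5 M NaCl, 1 mM EDTA, pH 7.5, 8-9% Me2SO, 25 °C; aliquots withdrawn over time for residual activity on ZArg-SBzl (0.07 mM) with 4,4'-dithiodipyridine (0.33 mM). First-order kobs from ln(vt/vo) versus time.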
# human factor XIa = target: T5, human factor XIa (Homo sapiens, UniProt P03951); test: Inactivation rate of human factor XIa; format: biochemical; conditions: pH 7.5, 25° C, read-out: kobs/[I]
# T5 construct: human factor XIa
# T5 sequence (P03951 388-625 limits assumed): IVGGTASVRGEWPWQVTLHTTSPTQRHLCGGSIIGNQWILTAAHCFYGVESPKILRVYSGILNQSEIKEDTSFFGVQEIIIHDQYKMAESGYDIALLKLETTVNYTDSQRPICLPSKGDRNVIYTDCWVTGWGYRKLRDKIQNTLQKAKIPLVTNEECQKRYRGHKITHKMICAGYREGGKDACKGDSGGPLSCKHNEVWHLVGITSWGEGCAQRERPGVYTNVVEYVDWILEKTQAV
# T5 sequence (P03951 19-387 partner limits assumed): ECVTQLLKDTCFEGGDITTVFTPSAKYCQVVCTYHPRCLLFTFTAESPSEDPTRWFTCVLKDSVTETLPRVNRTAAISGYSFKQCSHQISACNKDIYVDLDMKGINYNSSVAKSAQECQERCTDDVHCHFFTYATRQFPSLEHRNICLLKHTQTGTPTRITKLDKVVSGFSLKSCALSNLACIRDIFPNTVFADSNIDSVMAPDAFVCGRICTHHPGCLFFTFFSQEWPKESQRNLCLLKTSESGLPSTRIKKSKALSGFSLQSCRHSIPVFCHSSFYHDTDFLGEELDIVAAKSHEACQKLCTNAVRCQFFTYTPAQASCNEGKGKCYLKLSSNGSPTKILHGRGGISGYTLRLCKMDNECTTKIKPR
# Method: as §1, §2, §3, §4, §5, §6, §7
# ^a Inhibition rates were measured in 0.1M Hepes, 0.01M CaCl2, pH
# 7.5 buffer, 8% Me2 SO and at 25° C.
# human factor XIIa = target: T6, human factor XIIa (Homo sapiens, UniProt P00748); test: Inactivation rate of human factor XIIa; format: biochemical; conditions: pH 7.5, 25° C, read-out: kobs/[I]
# T6 construct: human factor XIIa
# T6 sequence (P00748 373-615 limits assumed): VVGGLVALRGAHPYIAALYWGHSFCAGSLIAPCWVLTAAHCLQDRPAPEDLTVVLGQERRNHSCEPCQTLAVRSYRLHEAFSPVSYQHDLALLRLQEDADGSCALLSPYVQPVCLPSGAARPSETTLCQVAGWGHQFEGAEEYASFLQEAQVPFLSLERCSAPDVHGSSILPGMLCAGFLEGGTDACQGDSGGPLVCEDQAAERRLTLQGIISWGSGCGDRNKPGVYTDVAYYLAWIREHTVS
# T6 sequence (P00748 20-372 partner limits assumed): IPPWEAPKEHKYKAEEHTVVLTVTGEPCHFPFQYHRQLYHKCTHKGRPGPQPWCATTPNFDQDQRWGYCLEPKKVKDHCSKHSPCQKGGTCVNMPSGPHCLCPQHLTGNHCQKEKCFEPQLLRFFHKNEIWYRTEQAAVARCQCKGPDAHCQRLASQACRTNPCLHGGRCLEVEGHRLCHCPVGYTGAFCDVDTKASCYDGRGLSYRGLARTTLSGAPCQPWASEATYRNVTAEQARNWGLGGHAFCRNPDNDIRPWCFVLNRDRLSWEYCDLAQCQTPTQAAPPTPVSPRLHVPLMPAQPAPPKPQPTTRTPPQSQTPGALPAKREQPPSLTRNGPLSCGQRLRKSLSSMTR
# In short: as §8
# [2] = pH 7.5, Table III, 25 mM phosphate, [I] 0.4 to 50 μM
# [3] = pH 7.5, 25° C, [I] 3 to 330 μM (footnote g)
# [4] = Table I, pH 7.5, 25° C, [I] 0.3 to 400 μM
# [5] = pH 7.5, based on residual activity at 0.2 min
# [6] = pH 7.5, Table IX, [I] 0.42-0.51 μM
# [7] = pH 7.5, Table I, same concentration of enzyme and inhibitor
kinact/KI (human plasma kallikrein; [3]),kinact/KI (bovine thrombin; [4]),SMILES,kinact/KI (mouse granzyme A),"kinact/KI (chymotrypsin; Table IV, [I] 0.004 to 0.33 mM)",kinact/KI (complement protein B),kinact/KI (rat skin tryptase; [2]),"kinact/KI (human factor XIa; Table I, [I] 3 to 330 μM)","kinact/KI (human factor XIIa; Table I, [I] 3 to 330 μM)",kinact/KI (human plasma kallikrein; [5]),also measured
–,–,COc1oc(=O)c2cc(NC(=N)N)ccc2c1Cl [7-guanidino-4-chloro-3-methoxyisocoumarin],15000 M⁻¹ s⁻¹,7200 M⁻¹ s⁻¹,285 M⁻¹ s⁻¹,52000 M⁻¹ s⁻¹,36200 M⁻¹ s⁻¹,20000 M⁻¹ s⁻¹,–,"kinact/KI (human plasma kallikrein; pH 7.5, progress curve method): 240000 M⁻¹ s⁻¹; PT ([1]; [I] 21 μM): 16.5 s; kinact/KI (bovine thrombin; pH 7.5, Table I, progress curve method): 290000 M⁻¹ s⁻¹"
1400 M⁻¹ s⁻¹,350 M⁻¹ s⁻¹,NCCCOc1oc(=O)c2ccccc2c1Cl [3-(3-aminopropoxy)-4-chloroisocoumarin],770 M⁻¹ s⁻¹,580 M⁻¹ s⁻¹,–,8370 M⁻¹ s⁻¹,380 M⁻¹ s⁻¹,190 M⁻¹ s⁻¹,–,–
1100 M⁻¹ s⁻¹,630 M⁻¹ s⁻¹,N=C(N)SCCCOc1oc(=O)c2cc(N)ccc2c1Cl [7-amino-4-chloro-3-(3-isothiureidopropoxy)isocoumarin],3000 M⁻¹ s⁻¹,1600 M⁻¹ s⁻¹,–,63000 M⁻¹ s⁻¹,22000 M⁻¹ s⁻¹,6200 M⁻¹ s⁻¹,–,PT ([1]; [I] 29 μM): 19.4 s; kinact/KI (rat skin tryptase; [6]): 39000 M⁻¹ s⁻¹
–,–,N=C(N)Nc1ccc2c(Cl)c(OCCc3ccccc3)oc(=O)c2c1 [7-guanidino-4-chloro-3-(2-phenylethoxy)isocoumarin],6400 M⁻¹ s⁻¹,38000 M⁻¹ s⁻¹,–,86000 M⁻¹ s⁻¹,20000 M⁻¹ s⁻¹,26000 M⁻¹ s⁻¹,> 270000 M⁻¹ s⁻¹,PT ([1]; [I] 27 μM): 13.0 s; kinact/KI (bovine thrombin; [7]): > 30000 M⁻¹ s⁻¹
13000 M⁻¹ s⁻¹,4900 M⁻¹ s⁻¹,COc1cc2ccc(NC(=N)N)cc2c(=O)o1 [7-guanidino-3-methoxyisocoumarin],–,270 M⁻¹ s⁻¹,–,–,1400 M⁻¹ s⁻¹,520 M⁻¹ s⁻¹,–,–
–,–,"CCOc1oc(=O)c2cc(NC(=N)N)ccc2c1Cl [7-guanidino-3-ethoxy-4-chloroisocoumarin, 7-guanidino-4-chloro-3-ethoxyisocoumarin]",26200 M⁻¹ s⁻¹,37000 M⁻¹ s⁻¹,167 M⁻¹ s⁻¹,82000 M⁻¹ s⁻¹,60000 M⁻¹ s⁻¹,22000 M⁻¹ s⁻¹,> 500000 M⁻¹ s⁻¹,PT ([1]; [I] 21 μM): 22.4 s; PT ([1]; [I] 53 μM): 31.4 s; PT ([1]; [I] 75 μM): 44.2 s; PT ([1]; [I] 107 μM): 80 s; kinact/KI (bovine thrombin; [7]): > 55000 M⁻¹ s⁻¹
–,–,"O=c1oc(Cl)c(Cl)c2ccccc12 [3,4-dichloroisocoumarin, reference compound]",50 M⁻¹ s⁻¹,–,–,610 M⁻¹ s⁻¹,–,–,–,PT ([1]; [I] 33 μM): 12.4 s; inhibition of protein B (in words) (complement protein B): do not show any inhibition
–,–,"N=C(N)SCCOc1oc(=O)c2cc(NC(=O)Nc3ccccc3)ccc2c1Cl [PhNHCONH-CiTEtOIC, 7-(phenylcarbamoylamino)-4-chloro-3-(2-isothiureidoethoxy)isocoumarin]",–,–,–,–,–,–,–,"kinact/KI (chymotrypsin; Table X, [I] 0.9-43 μM): 16000 M⁻¹ s⁻¹; kinact/KI (bovine thrombin; Table VIII, pH 7.5, 25° C, [I] 1.2-54 μM): 25000 M⁻¹ s⁻¹; kinact/KI (rat skin tryptase; [6]): 170000 M⁻¹ s⁻¹; kinact/KI (human factor XIa; Table VIII, [I] 0.7-0.8 μM): 104000 M⁻¹ s⁻¹; kinact/KI (human factor XIIa; Table VIII, [I] 3.6-4.9 μM): 50000 M⁻¹ s⁻¹"

SMILES,kinact/KI (human plasma kallikrein; [3]),kinact/KI (bovine thrombin; [4]),kinact/KI (mouse granzyme A),"kinact/KI (chymotrypsin; Table IV, [I] 0.004 to 0.33 mM)",kinact/KI (complement protein B),kinact/KI (rat skin tryptase; [2]),"kinact/KI (human factor XIa; Table I, [I] 3 to 330 μM)","kinact/KI (human factor XIIa; Table I, [I] 3 to 330 μM)",kinact/KI (human plasma kallikrein; [5]),also measured
N=C(N)SCCCOc1oc(=O)c2ccccc2c1Cl [3-(3-isothiureidopropoxy)-4-chloroisocoumarin],–,1430 M⁻¹ s⁻¹,17500 M⁻¹ s⁻¹,1700 M⁻¹ s⁻¹,0.4 M⁻¹ s⁻¹,53000 M⁻¹ s⁻¹,47000 M⁻¹ s⁻¹,27000 M⁻¹ s⁻¹,> 110000 M⁻¹ s⁻¹,PT ([1]; [I] 31 μM): 12.3 s
N=C(N)SCCOc1oc(=O)c2ccccc2c1Cl [3-(2-isothiureidoethoxy)-4-chloroisocoumarin],–,4700 M⁻¹ s⁻¹,–,1300 M⁻¹ s⁻¹,13 M⁻¹ s⁻¹,–,44000 M⁻¹ s⁻¹,39000 M⁻¹ s⁻¹,280000 M⁻¹ s⁻¹,–
